{
  "source": "patent US20080125409A1",
  "about": "“1,5-Diheterocycle-1H-Triazole Derivative” (DAIICHI PHARMACEUTICAL CO., LTD., priority 2004, published 2008)",
  "key": {"[1]": {"test_system": "platelet-rich plasma (PRP), collagen-induced platelet aggregation", "assay": "Collagen-stimulated platelet aggregation inhibition in human platelet-rich plasma", "format": "cell-based", "conditions": "2 min, 2 min at 37° C. with compound", "description": "Platelet Aggregation Suppressing Action\nHuman blood was collected using a 3.13% solution of sodium citrate as an anticoagulant, in a volume 1/10 of the blood volume, and was centrifuged at 180 g for 10 minutes to separate platelet-rich plasma (PRP) from the blood. The PRP in the upper layer was isolated, and then the lower layer was centrifuged at 1600 g for 10 minutes to isolate the platelet-poor plasma (PPP) in the upper layer. 1 μL of a solution of the compound of the Examples) was added to 200 μL of the PRP, and the mixture was allowed to stand for 2 minutes at 37° C. Then, 2 μL of collagen was added thereto, so as to induce platelet aggregation. The rate of platelet aggregation was measured using a PAM-12C (SSR Engineering). By taking the light transmittance of the PPP as the value indicating 100% aggregation, the rates of platelet aggregation at various concentrations of the compound of the Examples were determined, and the IC50 value was calculated."}, "COX-1": {"target": "T1, COX-1 (Ovis aries, UniProt P05979)", "T1 construct": "purchased Cayman Chemical Company 560101 and 560121", "T1 sequence (P05979 25-600)": "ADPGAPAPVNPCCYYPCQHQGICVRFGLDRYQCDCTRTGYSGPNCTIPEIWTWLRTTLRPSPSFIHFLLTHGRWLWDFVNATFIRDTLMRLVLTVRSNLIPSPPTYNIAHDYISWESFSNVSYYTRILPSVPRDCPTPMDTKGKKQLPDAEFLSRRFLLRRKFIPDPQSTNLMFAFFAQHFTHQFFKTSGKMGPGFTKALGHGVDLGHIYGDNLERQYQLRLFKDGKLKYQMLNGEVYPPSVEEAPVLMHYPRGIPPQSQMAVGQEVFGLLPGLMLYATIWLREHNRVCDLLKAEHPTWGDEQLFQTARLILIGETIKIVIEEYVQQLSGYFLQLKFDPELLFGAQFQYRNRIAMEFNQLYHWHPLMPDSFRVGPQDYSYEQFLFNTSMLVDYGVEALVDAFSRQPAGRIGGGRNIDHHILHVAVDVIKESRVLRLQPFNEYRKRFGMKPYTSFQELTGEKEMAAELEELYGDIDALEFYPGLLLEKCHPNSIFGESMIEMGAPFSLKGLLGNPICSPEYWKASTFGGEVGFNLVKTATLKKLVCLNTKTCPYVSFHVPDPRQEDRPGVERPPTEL", "assay": "Cyclooxygenase-1 (COX-1) inhibitory effect (Cayman COX Inhibitor Screening Assay Kit, PGF2α ELISA)", "format": "biochemical", "conditions": "in the presence of 50 μM of the compound; PGF2α production without compound regarded as 100%; read-out: COX inhibitory activity COX-1 (rate of COX-1 inhibition)", "text": "Cyclooxygenase-1 (COX-1) Inhibitory Effect\nFor the measurement of the COX-1 inhibitory activity of the compound of the Examples, a COX Inhibitor Screening Assay Kit manufactured by Cayman Chemical Company (Catalog Nos. 560101 and 560121) was used.\nBefore starting the measurement, a reaction buffer, heme, arachidonic acid, SnCl2, EIA buffer, a washing buffer, prostaglandin (PG)-screening EIA standard solution, PG-screening acetylcholinesterase (AchE), a tracer […], and PG-screening EIA antiserum were provided.\n(1) Production of PGF2α by COX-1\nA reaction solution containing the compound of the Examples (50 μM) and COX-1 was allowed to stand at 37° C. for 10 minutes, then 10 μl of arachidonic acid was added thereto, and the resultant mixture was allowed to stand at 37° C. for 2 minutes. After the reaction, 50 μl of 1 N hydrochloric acid was added to the reaction mixture to thereby stop the reaction, and 100 μl of a SnCl2 solution was added thereto. The resultant mixture was allowed to stand at room temperature for 5 minutes.\n(2) Quantification of PGF2α by ELISA\n50 μl of antiserum (rabbit anti-PGF2α antibody) was added to each of the wells of a 96-well plate coated with mouse anti-rabbit IgG. Then, 50 μl of a solution prepared by diluting the aforementioned reaction solution for the production of PGF2α to 2000-folds, and 50 μl of an AchE tracer were added sequentially to the wells, and the plate was allowed to stand at room temperature for 18 hours. Each well was washed 5 times with the washing buffer to remove excessive AchE tracer, and then 200 μl of Ellman reagent was added to each well. The plate was kept in a dark room for 60 minutes, and then, absorbance at 405 nm was measured.\n(3) Calculation of Inhibitory Activity of the Compound of the Examples\nA standard curve was produced using a PG-screening EIA standard solution, and the amount of PGF2α production was determined from the absorbance obtained in the above. The rate of COX-1 inhibition in the presence of 50 μM of the compound of the Examples was calculated."}},
  "data": [
    {"smiles": "Cc1ccc(-c2nc(C(=O)NC(C)(C)C)nn2-c2ccc(C)nc2)nc1", "note": "[Example 35, N-tert-Butyl-1-(6-methyl-3-pyridyl)-5-(5-methyl-2-pyridyl)-1H-1,2,4-triazole-3-carboxamide]", "values": [
      {"measurement": "IC50", "setting": "[1]", "result": 120, "unit": "nM"},
      {"measurement": "inhibition at 50 µM", "setting": "COX-1", "result": -17.2, "unit": "%"}
    ]},
    {"smiles": "COc1ccc(-n2nc(C(=O)NC3(C)CC3)nc2-c2ccc(C)cn2)cn1", "note": "[Example 44, N-(1-Methylcyclopropyl)-1-(6-methoxy-3-pyridyl)-5-(5-methyl-2-pyridyl)-1H-1,2,4-triazole-3-carboxamide]", "values": [
      {"measurement": "IC50", "setting": "[1]", "result": 220, "unit": "nM"}
    ]},
    {"smiles": "COc1ccc(-n2nc(C(=O)NCC(C)(C)C)nc2-c2ccc(C)cn2)cn1", "note": "[Example 18, 1-(6-Methoxy-3-pyridyl)-5-(5-methyl-2-pyridyl)-1H-1,2,4-triazole-3-carboxylic acid N-neopentylamide]", "values": [
      {"measurement": "IC50", "setting": "[1]", "result": 13, "unit": "nM"}
    ]},
    {"smiles": "COc1ccc(-n2nc(C(=O)N3CCOCC3)nc2-c2ccc(C)cn2)cn1", "note": "[Example 38, 4-[1-(6-Methoxy-3-pyridyl)-5-(5-methyl-2-pyridyl)-1H-1,2,4-triazole-3-carbonyl]morpholine]", "values": [
      {"measurement": "IC50", "setting": "[1]", "result": 250, "unit": "nM"},
      {"measurement": "inhibition at 50 µM", "setting": "COX-1", "result": 0.9, "unit": "%"}
    ]},
    {"smiles": "COc1ccc(-n2nc(C(=O)NC(C)(C)C)nc2-c2cnc(C)cn2)cn1", "note": "[Example 6, N-tert-Butyl-1-(6-methoxy-3-pyridyl)-5-(5-methyl-2-pyrazinyl)-1H-1,2,4-triazole-3-carboxamide]", "values": [
      {"measurement": "IC50", "setting": "[1]", "result": 170, "unit": "nM"},
      {"measurement": "inhibition at 50 µM", "setting": "COX-1", "result": -15.8, "unit": "%"}
    ]},
    {"smiles": "COc1ccc(-n2nc(C(=O)N3CCN(C)CC3)nc2-c2ccc(C)cn2)cn1", "note": "[Example 29, 1-[1-(6-Methoxy-3-pyridyl)-5-(5-methyl-2-pyridyl)-1H-1,2,4-triazole-3-carbonyl]-4-methylpiperazine]", "values": [
      {"measurement": "IC50", "setting": "[1]", "result": 220, "unit": "nM"},
      {"measurement": "inhibition at 50 µM", "setting": "COX-1", "result": -23.1, "unit": "%"}
    ]},
    {"smiles": "COc1ccc(-n2nc(C(=O)N3CCC[C@H]3CF)nc2-c2ccc(C)cn2)cn1", "note": "[Example 37, (2S)-1-[1-(6-Methoxy-3-pyridyl)-5-(5-methyl-2-pyridyl)-1H-1,2,4-triazole-3-carbonyl]-2-fluoromethylpyrrolidine]", "values": [
      {"measurement": "IC50", "setting": "[1]", "result": 16, "unit": "nM"},
      {"measurement": "inhibition at 50 µM", "setting": "COX-1", "result": 6.6, "unit": "%"}
    ]},
    {"smiles": "COc1ccc(-n2nc(C(=O)NC(C)(C)C)nc2-c2ccc(Cl)cn2)cn1", "note": "[Example 11, N-tert-Butyl-5-(5-chloro-2-pyridyl)-1-(6-methoxy-3-pyridyl)-1H-1,2,4-triazole-3-carboxamide]", "values": [
      {"measurement": "IC50", "setting": "[1]", "result": 88, "unit": "nM"}
    ]},
    {"smiles": "COc1ccc(-n2nc(C(=O)N3CCC(F)(F)CC3)nc2-c2ccc(CO)cn2)cn1", "note": "[Example 41, 1-[5-(5-Hydroxymethyl-2-pyridyl)-1-(6-methoxy-3-pyridyl)-1H-1,2,4-triazole-3-carbonyl]-4,4-difluoropiperidine]", "values": [
      {"measurement": "IC50", "setting": "[1]", "result": 220, "unit": "nM"},
      {"measurement": "inhibition at 50 µM", "setting": "COX-1", "result": 4.6, "unit": "%"}
    ]},
    {"smiles": "COc1ccc(-n2nc(C(=O)NC(C)(C)C)nc2-c2ccc(N)cn2)cn1", "note": "[Example 14, 5-(5-Amino-2-pyridyl)-1-(6-methoxy-3-pyridyl)-1H-1,2,4-triazole-3-carboxylic acid N-tert-butylamide]", "values": [
      {"measurement": "IC50", "setting": "[1]", "result": 130, "unit": "nM"}
    ]},
    {"smiles": "COc1ccc(-n2nc(C(=O)NC(C)(C)C)nc2-c2ccc(C#N)cn2)cn1", "note": "[Example 3, N-tert-Butyl-5-(5-cyano-2-pyridyl)-1-(6-methoxy-3-pyridyl)-1H-1,2,4-triazole-3-carboxamide]", "values": [
      {"measurement": "IC50", "setting": "[1]", "result": 160, "unit": "nM"},
      {"measurement": "inhibition at 50 µM", "setting": "COX-1", "result": 19.5, "unit": "%"}
    ]},
    {"smiles": "COc1ccc(-n2nc(C(=O)NC(C)(C)C)nc2-c2ccccn2)cn1", "note": "[Example 1, N-tert-Butyl-1-(6-methoxy-3-pyridyl)-5-(2-pyridyl)-1H-1,2,4-triazole-3-carboxamide]", "values": [
      {"measurement": "IC50", "setting": "[1]", "result": 40, "unit": "nM"},
      {"measurement": "inhibition at 50 µM", "setting": "COX-1", "result": 7.5, "unit": "%"}
    ]},
    {"smiles": "COc1ccc(-n2nc(C(=O)NC(C)C)nc2-c2ccccn2)cn1", "note": "[Example 22, N-isoPropyl-1-(6-methoxy-3-pyridyl)-5-(2-pyridyl)-1H-1,2,4-triazole-3-carboxamide]", "values": [
      {"measurement": "IC50", "setting": "[1]", "result": 530, "unit": "nM"}
    ]}
  ]
}
